Assay results taken from patent US4353907A, “Amidino hydrazone . C17 H29-35 COOH insect and fire ant bait formulations” (American Cyanamid Co., priority 1981, dated 1982).
“And” between values parts separate entries of the source, which are not always exact repeats. Equal values may be shown once.

Tests used:
[1] = system: Phosphate resistant 2-spotted spider mite (Tetranychus urticae); experiment: Screening: Mite test; type: in vivo; settings: 300 ppm
Protocol: Mite: Phosphate resistant 2-spotted spider mite
(Tetranychus urticae), adults, eggs, nymphs.
Test: Screening: Mite test.
(§1) Formulation: 50:50 acetone:water
Plant Preparation: Sieva lima bean plants with primary leaves 7-8 cm long are selected and cut back to one plant per pot. A small piece is cut off of a leaf taken from the main mite colony and placed on each leaf of the test plants. This is done about 1-3 hours before use to allow the mites to move over to the test plant and lay eggs before treatment. The size of the piece cut is varied to try to obtain about 100 mites per leaf.
Mite Preparation: See above.
Test Procedure: The piece of leaf used to transfer mites is removed and discarded. The mite-infested plant is dipped in the test formulation for 3 seconds with agitation, and the plant set in the hood to dry.
Holding Conditions: The plants are held for 2 days at 27° C. for the first observation, and the second leaf is kept on the plant for another 5 days for the final observation.
Observations: After 2 days one leaf is removed and examined under a 10×microscope to determine the mortality of the adult mites. The second leaf is examined similarly 7 days after treatment to observe the kill of eggs and of newly hatched nymphs giving a measure of ovicidal and residual action, respectively. Any evidence of phytotoxicity from the test treatment is noted. The standard rating system of 0-9 is used to record the mite data.

[2] = system: Tobacco budworm (Heliothis virescens), egg; experiment: Screening, TBW egg test (tobacco budworm eggs); type: in vivo; settings: 300 ppm
Excerpt: Insect: Tobacco budworm (Heliothis virescens), egg
Test: Screening, TBW egg test.
(§2) Formulation: 50:50 acetone:water.
Concentrations: Screening: 300, 100, 10, 1 ppm.
(§3) Plant Preparation: Cotton plants are selected to give plants with the first true leaf expanded to about 6-7 cm in length.
Insect Preparation: Eggs are collected on cheesecloth used as the lid for the moth oviposition chamber in the rearing colony. This cloth is cut into 10-20 mm squares containing about 50-100 budworm eggs laid within the past day. Thus, eggs are 6-30 hours old when used in the test.
Test Procedures: The cotton plant is dipped in the test formulation and agitated for 3 seconds. A square of cheesecloth with eggs is also dipped in the test formulation, placed on the treated leaf and the combination placed in the hood to air dry. When dry, the leaf and egg cloth are removed from the plant, and placed in an "8-ounce Dixie cup (240 ml. 6 cm high, top diameter 9.5 cm. bottom diameter 8 cm)," to which a 5 cm length of damp cotton dental wick had been previously added. A clear plastic lid is placed on the cup.
Holding Conditions: The cups are held at 27° C. until the eggs hatch, which occurs in about 2 days.
Observations: Kill of eggs. This may require the use of a low-power microscope to determine if the lack of visible mobile caterpillars is due to lack of egg hatch or due to the newly hatched caterpillars dying on the leaf under and near the cheesecloth. The standard rating system of 0-9 is used to record the results.

[3] = Determination of Solubility in Soybean Oil (HPLC of oil phase after equilibration); type: physicochemical; settings: for % Salt in Oil Layer / % Amidino Hydrazone in Oil Layer (w/w), Average: 25° C.; for % Salt in Oil Layer: footnote * formula (drawing 4); for % Amidino Hydrazone in Oil Layer (w/w), Average: average of duplicates; for % Amidino Hydrazone in Oil Layer (w/w): individual duplicate, equilibrated at 100° C. 4 hours, cooled to 25° C.
Protocol: Each salt of example 1 was equilibrated with approximately 3/8 its weight of soybean oil at 100° C. for 4 hours with ultrasonic agitation. The resulting mixtures were centrifuged while hot and allowed to cool to room temperature (25° C.). […] Duplicate samples of the oil phases were analyzed by solution in methylene chloride and quantitation by HPLC.

[4] = system: Southern armyworm (Spodoptera eridania), 3rd instar; experiment: Screening: Southern armyworm larva; type: in vivo
Protocol: Insect: Southern armyworm (Spodoptera eridania). 3rd instar.
Test: Screening: Southern armyworm larva.
Formulation: 2:1 acetone:water.
Plant Preparation: Sieva lima bean plants are selected with primary leaves 7-8 cm long and cut back to one plant per pot.
Insect Preparation: A 100×10 mm petri dish is prepared by putting a damp filter paper in the bottom and ten 3rd instar larvae are added. These are about 10 mm long.
Test Procedure: The bean plant is dipped for 3 seconds with agitation in the test formulation and placed in the hood to dry. One leaf is removed from the plant and placed in the petri dish with the caterpillars.
Holding Conditions: The dish is held at 27° C. The plant with the remaining leaf is held in the greenhouse under high intensity lights.
Observations: Mortality counts are made after 2 days and recorded using the standard 0-9 rating system.

[5] = system: Tobacco budworm (Heliothis vireacens), 1st instar; experiment: Screening, TBW 1st instar test; type: in vivo
Protocol: Insect: Tobacco budworm (Heliothis vireacens), 1st instar.
Test: Screening, TBW 1st instar test.
as §1
Concentrations: Screening: 300, 100, 10, 1 ppm
as §3
Insect Preparation: Cheesecloth on which moths have oviposited is daily cut into 10-20 mm squares containing 50-100 eggs each. These squares are held at 21° C. for 2 days and 24° C. for another day in order to coordinate hatch with testing times. Thus, the larvae are 0-2 hours old at time of use.
Test Procedure: The cotton plant is dipped in the test formulation, agitated for 3 seconds, and placed in the hood to air dry. When dry, the leaf is removed from the plant and placed in an "8-ounce Dixie cup (240 ml, 6 cm high, top diameter 9.5 cm, bottom diameter (8 cm)" to which a 5 cm length of damp cotton dental wick had been previously added. A square of cheesecloth with newly hatched budworm larvae on it is placed on the treated leaf and a clear plastic lid is put on the cup.
Holding Conditions: The cups are held at 27° C. for 2 days.
Observations: Kill of larvae. This may require the use of a low-power microscope to determine if the worms are dead or just not feeding. Observation of amount of feeding is also recorded. Where there is only trace to light feeding, the cup is held an extra day and results recorded at that time. The standard rating system of 0-9 is used.

[6] = system: Bean aphid (Aphis fabae), mixed stages; experiment: Screening: bean aphid test; type: in vivo; settings: 100 ppm
Protocol: Insect: Bean aphid (Aphis fabae), mixed stages.
Test: Screening: bean aphid test
as §2
Plant Preparation: 5 cm pots each containing a nasturtium plant about 5 cm tall are infested with 100 to 400 aphids 2-4 days before the test.
Insect Preparation: See above.
Test Procedure: The pot of aphids is sprayed for 2 revolutions of a 4 rpm turntable in the hood, using a #154 DeVilbiss atomizer at 1500 kg/m^2 pressure. The spray tip is held about 15 cm from the plant and the spray directed so as to give complete coverage of the aphid and the plants. The sprayed plants are laid on their sides on white enamel trays measuring 24×34 cm.
Holding Conditions: Trays of sprayed pots are held at 27° C. for 1 day.
Observations: Mortality estimates are made and data recorded with the standard […] rating system.
NOTE: For LD50 determinations, a clean tray 24×34 cm is ruled off into a grid with 3 cm spacing and the live aphids gently brushed off the plant onto the gridded tray. This makes it easier to make an exact count of the number of aphids on the plant. Dead aphids, which fall off the plant onto the tray, are counted where they fall, since they stick to the tray and cannot be brushed onto a gridded tray for counting.

[7] = Solubility of the toxicant in fatty acids and edible fats and oils; type: physicochemical
[8] = listed as Amidino Hydrazone Salt Of Linoleic Acid
[9] = listed as Amidino Hydrazone Salt Of Linolenic Acid
[10] = listed as Amidino Hydrazone Salt Of Oleic Acid
[11] = listed as Amidino Hydrazone Salt Of Stearic Acid

In the case of `CC1(C)CN=C(NN=C(C=Cc2ccc(C(F)(F)F)cc2)C=Cc2ccc(C(F)(F)F)cc2)NC1` [Amidino Hydrazone Linoleate], the “P-res. Mites control rating” value [1] is reported as 0 (0 control), the “Budworm Eggs control rating” value [2] is reported as 0 (0 control) and the “% Salt in Oil Layer” value [3, 8] is reported as 47%. For the same molecule, the “% Amidino Hydrazone in Oil Layer (w/w), Average” value (from here on “% Amidino Hydrazone … Average”) [3, 8] was 30.3 % (w/w), the “% Amidino Hydrazone in Oil Layer (w/w)” value [3, 8] was 30.3 % (w/w) and 30.4 % (w/w) and the “3rd Instar Armyworms control rating” value ([4]; 10 ppm) was 9 (100% control). For the same molecule, the “3rd Instar Armyworms control rating” value ([4]; 100 ppm) was 9 (100% control), the “3rd Instar Armyworms control rating” value ([4]; 1000 ppm) was 9 (100% control) and the “1st Instar Tobacco Budworms control rating” value ([5]; 10 ppm) was 0 (0 control). For the same molecule, the “1st Instar Tobacco Budworms control rating” value ([5]; 100 ppm) was 7 (80% control), the “1st Instar Tobacco Budworms control rating” value ([5]; 300 ppm) was 9 (100% control) and the Aphids control rating [6] was 0 (0 control).
In the case of `CC1(C)CN=C(NN=C(C=Cc2ccc(C(F)(F)F)cc2)C=Cc2ccc(C(F)(F)F)cc2)NC1` [Amidino Hydrazone Linolenate], the “P-res. Mites control rating” value [1] is reported as 0 (0 control), the “Budworm Eggs control rating” value [2] is reported as 0 (0 control) and the “% Salt in Oil Layer” value [3, 9] is reported as 55%. The “% Amidino Hydrazone … Average” value [3, 9] was 35.4 % (w/w), the “% Amidino Hydrazone in Oil Layer (w/w)” value [3, 9] was 35.9 % (w/w) and 34.8 % (w/w) and the “3rd Instar Armyworms control rating” value ([4]; 10 ppm, listed as Amidino Hydrazine Linolenate) was 9 (100% control). For the same molecule, the “3rd Instar Armyworms control rating” value ([4]; 100 ppm) was 9 (100% control), the “3rd Instar Armyworms control rating” value ([4]; 1000 ppm) was 9 (100% control) and the “1st Instar Tobacco Budworms control rating” value ([5]; 10 ppm) was 0 (0 control). The “1st Instar Tobacco Budworms control rating” value ([5]; 100 ppm, listed as Amidino Hydrazine Linolenate) was 9 (100% control), the “1st Instar Tobacco Budworms control rating” value ([5]; 300 ppm, listed as Amidino Hydrazine Linolenate) was 9 (100% control) and the Aphids control rating ([6]; listed as Amidino Hydrazine Linolenate) was 5 (60% control).
For `CC1(C)CN=C(NN=C(C=Cc2ccc(C(F)(F)F)cc2)C=Cc2ccc(C(F)(F)F)cc2)NC1` [Amidino Hydrazone Oleate], the “P-res. Mites control rating” value [1] was 0 (0 control), the “Budworm Eggs control rating” value [2] was 0 (0 control) and the “% Salt in Oil Layer” value [3, 10] was 44%. For the same molecule, the “% Amidino Hydrazone … Average” value [3, 10] was 28.0 % (w/w), the “% Amidino Hydrazone in Oil Layer (w/w)” value [3, 10] was 27.8 % (w/w) and 28.1 % (w/w) and the “3rd Instar Armyworms control rating” value ([4]; 10 ppm) was 6 (70% control). The “3rd Instar Armyworms control rating” value ([4]; 100 ppm) was 9 (100% control), the “3rd Instar Armyworms control rating” value ([4]; 1000 ppm) was 9 (100% control) and the “1st Instar Tobacco Budworms control rating” value ([5]; 10 ppm) was 0 (0 control). The “1st Instar Tobacco Budworms control rating” value ([5]; 100 ppm) was 0 (0 control), the “1st Instar Tobacco Budworms control rating” value ([5]; 300 ppm) was 7 (80% control) and the Aphids control rating [6] was 0 (0 control).
For `CC1(C)CN=C(NN=C(C=Cc2ccc(C(F)(F)F)cc2)C=Cc2ccc(C(F)(F)F)cc2)NC1` [Amidino Hydrazone Stearate, 1,4-pentadien-3-one, 1,5-bis(alpha,alpha,alpha-trifluoro-p-tolyl)-(1,4,5,6-tetrahydro-5,5-dimethyl-2-pyrimidinyl)hydrazone stearate], the “P-res. Mites control rating” value [1] was 0 (0 control), the “Budworm Eggs control rating” value [2] was 0 (0 control) and the “% Salt in Oil Layer” value [3, 11] was 47%. The “% Amidino Hydrazone … Average” value [3, 11] was 30.1 % (w/w), the “% Amidino Hydrazone in Oil Layer (w/w)” value [3, 11] was 29.8 % (w/w) and 30.4 % (w/w) and the “3rd Instar Armyworms control rating” value ([4]; 10 ppm) was 9 (100% control). The “3rd Instar Armyworms control rating” value ([4]; 100 ppm) was 9 (100% control), the “3rd Instar Armyworms control rating” value ([4]; 1000 ppm) was 9 (100% control) and the “1st Instar Tobacco Budworms control rating” value ([5]; 10 ppm) was 0 (0 control). For the same molecule, the “1st Instar Tobacco Budworms control rating” value ([5]; 100 ppm) was 9 (100% control), the “1st Instar Tobacco Budworms control rating” value ([5]; 300 ppm) was 9 (100% control) and the Aphids control rating [6] was 8 (90% control).
For `CC1(C)CN=C(NN=C(C=Cc2ccc(C(F)(F)F)cc2)C=Cc2ccc(C(F)(F)F)cc2)NC1` [Amidino Hydrazone, 1,5-bis(alpha,alpha,alpha-trifluoro-p-tolyl)-1,4-pentadien-3-one (1,4,5,6-tetrahydro-5,5-dimethyl-2-pyrimidinyl)hydrazone], the “solubility in edible fats and oils attractive to fire ants” value ([7]; edible fats and oils as solvents for the toxicant) was “not very good solvents” and the “solubility in fatty acids” value ([7]; oleic, linoleic, linolenic, stearic acid and mixtures) was “readily soluble”.
